Results published in US8211901B2, “Naphthamide derivatives as multi-target protein kinase inhibitors and histone deacetylase inhibitors” (Shenzhen Chipscreen Biosciences Ltd., priority 2009, dated 2012).

Key:
Type in all cases: in vivo, nu/nu mice
[1] = Body weight in A549 xenograft study (Example 51); settings: 40 mg/kg orally once a day for 24 days
Procedure: The antitumor activity of compound 31 was measured in human A549 lung cancer xenograft model. […] Then the cultured A549 human lung cancer cells were implanted into the armpit of 50 mice. When tumors had reached approximately 6 mm in diameter, the mice were divided into 6 groups randomly. Each group has 8 mice. One group was treated with vehicle. One group was treated with sutent, the positive control drug. […] Each group was dosed orally once a day for 24 days. Tumor volumes as established by caliper measurements were recorded twice per week, along with body weights. At the end of study, the mice were killed, and tumors were weighed. The tumor growth inhibition of each group was calculated using the formula {[(the average tumor weight of vehicle group)-(the average tumor weight of drug group)]/(the average tumor weight of vehicle group)}×100%.

[2] = Body weight in SSMC7721 xenograft study (Example 56); settings: 40 mg/kg orally once a day for 30 days
Procedure: The antitumor activity of compound 33 and compound 37 were measured in human SSMC7721 liver cancer xenograft model. The female nu/nu mice of 18˜20 g were fed by normal diet for 3 days. Then the cultured SSMC7721 human liver cancer cells were implanted into the armpit of 50 mice. […] Each group has 8 mice. One group was treated with vehicle. One group was treated with sutent, the positive control drug. Two groups were treated with compound 33. The other two groups were treated with compound 37. Each group was dosed orally once a day for 30 days. Tumor volumes as established by caliper measurements were recorded twice per week, along with body weights. At the end of study, the mice were killed, and tumors were weighed. The tumor growth inhibition of each group was calculated using the formula {[(the average tumor weight of vehicle group)−(the average tumor weight of drug group)]/(the average tumor weight of vehicle group)}×100%.

[3] = tested on: human HCT-8 colon cancer xenograft; assay: Antitumor activity of compounds 33 and 37, HCT-8 xenograft (Example 55); settings: 40 mg/kg orally once a day for 20 days
Procedure: (§1) The antitumor activity of compound 33 and compound 37 were measured in human HCT-8 colon cancer xenograft model. The female nu/nu mice of 18˜20 g were fed by normal diet for 3 days. Then the cultured HCT-8 human colon cancer cells were implanted into the armpit of 50 mice. […] One group was treated with vehicle. One group was treated with sutent, the positive control drug. Two groups were treated with compound 33. The other two groups were treated with compound 37. Compound 33 was administered twice a day with an interval of 6 hours. Other drugs and vehicle were administered once a day. Each group was dosed orally for 20 days. Tumor volumes as established by caliper measurements were recorded twice per week, along with body weights. At the end of study, the mice were killed, and tumors were weighed. The tumor growth inhibition of each group was calculated using the formula {[(the average tumor weight of vehicle group)−(the average tumor weight of drug group)]/(the average tumor weight of vehicle group)}×100%.

[4] = Body weight in HCT-8 xenograft study (Example 54); settings: 40 mg/kg orally once a day for 20 days
Procedure: (§2) The antitumor activity of compound 33 and compound 34 were measured in human HCT-8 colon cancer xenograft model. The female nu/nu mice of 18˜20 g were fed by normal diet for 3 days. Then the cultured HCT-8 human colon cancer cells were implanted into the armpit of 50 mice. When tumors had reached approximately 100 mm^3, the mice were divided into 6 groups randomly. Each group has 8 mice. One group was treated with vehicle. One group was treated with sutent, the positive control drug. Two groups were treated with compound 33. The other two groups were treated with compound 34. Each group was dosed orally once a day for 20 days. Tumor volumes as established by caliper measurements were recorded twice per week, along with body weights. At the end of study, the mice were killed, and tumors were weighed. The tumor growth inhibition of each group was calculated using the formula {[(the average tumor weight of vehicle group)−(the average tumor weight of drug group)]/(the average tumor weight of vehicle group)}×100%.

[5] = Body weight in SSMC7721 xenograft study (Example 53); settings: 40 mg/kg orally once a day for 30 days
Procedure: (§3) The antitumor activity of compound 31 was measured in human SSMC7721 liver cancer xenograft model. The female nu/nu mice of 18˜20 g were fed by normal diet for 3 days. Then the cultured SSMC7721 human liver cancer cells were implanted into the armpit of 50 mice. […] One group was treated with vehicle. One group was treated with sutent, the positive control drug. […] Each group was dosed orally once a day for 30 days. Tumor volumes as established by caliper measurements were recorded twice per week, along with body weights. At the end of study, the mice were killed, and tumors were weighed. The tumor growth inhibition of each group was calculated using the formula {[(the average tumor weight of vehicle group)−(the average tumor weight of drug group)]/(the average tumor weight of vehicle group)}×100%.

[6] = Body weight in HCT-8 xenograft study (Example 52); settings: 40 mg/kg orally once a day for 20 days
Procedure: as §2, with “31 was” for “33 and compound 34 were”, “Two groups were treated with compound 33. The other two groups were treated with compound 34.” left out

[7] = Body weight in HCT-8 xenograft study (Example 55); settings: 40 mg/kg orally once a day for 20 days
Procedure: as §1

[8] = tested on: human SSMC7721 liver cancer xenograft; assay: Antitumor activity of compound 31, SSMC7721 xenograft (Example 53); settings: 40 mg/kg orally once a day for 30 days
Procedure: as §3

## CCN(CC)CCNC(=O)c1c(C)[nH]c(/C=C2\C(=O)Nc3ccc(F)cc32)c1C [Sutent, reference compound]
[1]; end
  Body weight (g) end: 24.4 ± 2.3 g
[1]; start
  Body weight (g) start: 20.3 ± 1.4 g
[2]; end
  Body weight (g) end: 24.0 ± 0.6 g
[2]; start
  Body weight (g) start: 21.2 ± 1.1 g
[3]
  TGI (%) Tumor growth inhibition: 95.3%
[4]; end
  Body weight (g) end: 22.1 ± 1.5 g
[4]; start
  Body weight (g) start: 20.6 ± 1.2 g
[5]; end
  Body weight (g) end: 24.8 ± 1.2 g
[5]; start
  Body weight (g) start: 21.0 ± 0.8 g
[6]; end
  Body weight (g) end: 22.4 ± 1.1 g
[6]; start
  Body weight (g) start: 21.5 ± 0.7 g
[7]; end
  Body weight (g) end: 23.7 ± 0.8 g
[7]; start
  Body weight (g) start: 21.3 ± 0.6 g
[8]
  TGI (%) Tumor growth inhibition: 70.3%
  Tumor weight: 1.00 ± 0.68 g
